# Assay: recombinant UMI read abundance after kanamycin selection (control-corrected) (log10(CPM+1)); higher = more efficient recombination; extreme values may be limits of the assay; sequences stand for … in AGTGCAGAGAAAATCGGCCAGTTTTCTCTGCCTGCAGTCCGCATGCCGTGGGACCCCTTGGGTTCTAACCTGTTGCCTAGATTTATGCAGCGGACTGCCTTTCTCCCAAAGTGATAAACCGG…AGGTTGGTTTCACT; site = the 11-nt donor
# Method in brief: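 After plating on IPTG (0.07 mM) plus kanamycin, or unselected, in two replicates, recombinant UMIs were PCR-amplified across the donor–target junction and sequenced. The cells were Escherichia coli co-electroporated with a UMI-tagged donor and donor-binding-loop pair library and a target plasmid with a fixed target and T7-inducible IS621 bridge recombinase. Values are log10(CPM+1), with CPM averaged over replicates and scaled by control-derived factors.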
row,Sequence,recombinant UMI read abundance (log10)
1,CGATCATCATGGACCGGTTTTCCCGGTAATCCGTATTTGCT (site CTATCATCTAC),0.00862
2,CGATCATCATGGACCGGTTTTCCCGGTAATCCGTATTTGCT (site CTATCATCTAG),1.22
3,CGATCATCATGGACCGGTTTTCCCGGTAATCCGTATTTGCT (site CTATCATCTCG),0.0222
4,CGATCATCATGGACCGGTTTTCCCGGTAATCCGTATTTGCT (site CTATCCTCTAG),0
5,CGATCATCATGGACCGGTTTTCCCGGTAATCCGTATTTGCT (site CTCTCATCTAG),0.961
6,CGATCATCATGGACCGGTTTTCCCGGTAATCCGTATTTGCT (site GAATCATCTAG),0
7,CGATCATCATGGACCGGTTTTCCCGGTAATCCGTATTTGCT (site GGAACATCTAG),0.00516
8,CGATCATCATGGACCGGTTTTCCCGGTAATCCGTATTTGCT (site GGATCACCTAG),0.00443
9,CGATCATCATGGACCGGTTTTCCCGGTAATCCGTATTTGCT (site GGATCATCTAG),0.606
10,CGATCATCATGGACCGGTTTTCCCGGTAATCCGTATTTGCT (site GGATCATCTAT),0.0067
11,CGATCATCATGGACCGGTTTTCCCGGTAATCCGTATTTGCT (site GGATCATCTGG),0
12,CGATCATCATGGACCGGTTTTCCCGGTAATCCGTATTTGCT (site GGATCGTCTAG),0.00614
13,CGATCATCATGGACCGGTTTTCCCGGTAATCCGTATTTGCT (site GGATGATCTAG),0
14,CGATCATCATGGACCGGTTTTCCCGGTAATCCGTATTTGCT (site GGTTCATCTAG),0
15,CGATCATCATGGACCGGTTTTCCCGGTAATCCGTATTTGCT (site TGACCATCTAG),1.21
16,CGATCATCATGGACCGGTTTTCCCGGTAATCCGTATTTGCT (site TGATAATCTAG),0
17,CGATCATCATGGACCGGTTTTCCCGGTAATCCGTATTTGCT (site TGATCAACTAG),0
18,CGATCATCATGGACCGGTTTTCCCGGTAATCCGTATTTGCT (site TGATCATCTAC),0.00378
19,CGATCATCATGGACCGGTTTTCCCGGTAATCCGTATTTGCT (site TGATCATCTAG),0.864
20,CGATCATCATGGACCGGTTTTCCCGGTAATCCGTATTTGCT (site TGATCATCTCG),0.00793
21,CGATCATCATGGACCGGTTTTCCCGGTAATCCGTATTTGCT (site TGATCCTCTAG),0
22,CGATCATCATGGACCGGTTTTCCCGGTAATCCGTATTTGCT (site TGCTCATCTAG),0
23,CGATCATCATGGACCGGTTTTCCCGGTAATCCGTATTTGCT (site TTATCATCTAG),1.88
24,CGATCATCATGGACCGGTTTTCCCGGTAATCCGTATTTGTA (site CGATCATCTAG),0
25,CGATCATCATGGACCGGTTTTCCCGGTAATCCGTATTTGTA (site CGATCATCTTA),2.57

row,Sequence,recombinant UMI read abundance (log10)
1,CGATCATCATGGACCGGTTTTCCCGGTAATCCGTATTTGTT (site CGATCATCTAA),1.4
2,CGATCATCATGGACCGGTTTTCCCGGTAATCCGTATTTGTT (site CGATCATCTAC),0
3,CGATCATCATGGACCGGTTTTCCCGGTAATCCGTATTTGTT (site CGATCATCTAG),0
4,CGATCATCATGGACCGGTTTTCCCGGTAATCCGTATTTGTT (site CGATCATCTAT),0.00529
5,CGATCCACATGGACCGGTTTTCCCGGTAATCCGTATTTGCT (site CGATCATCTAG),0
6,CGATCCACATGGACCGGTTTTCCCGGTAATCCGTATTTGCT (site CGATCCACTAG),2.75
7,CGATCCACATGGACCGGTTTTCCCGGTAATCCGTATTTGTT (site CGATCAACTAA),0.00541
8,CGATCCACATGGACCGGTTTTCCCGGTAATCCGTATTTGTT (site CGATCCACTAA),2.11
9,CGATCCACATGGACCGGTTTTCCCGGTAATCCGTATTTGTT (site CGATCGACTAA),0.00891
10,CGATCCACATGGACCGGTTTTCCCGGTAATCCGTATTTGTT (site CGATCTACTAA),0.00733
11,CGATCGTCATGGACCGGTTTTCCCGGTAATCCGTATTTGCC (site CGATCATCTAG),0
12,CGATCGTCATGGACCGGTTTTCCCGGTAATCCGTATTTGCC (site CGATCGTCTGG),1.05
13,CGATCTTCATGGACCGGTTTTCCCGGTAATCCGTATTTGCT (site CGATCATCTAG),0
14,CGATCTTCATGGACCGGTTTTCCCGGTAATCCGTATTTGCT (site CGATCCTCTAG),0.00985
15,CGATCTTCATGGACCGGTTTTCCCGGTAATCCGTATTTGCT (site CGATCGTCTAG),0.00569
16,CGATCTTCATGGACCGGTTTTCCCGGTAATCCGTATTTGCT (site CGATCTTCTAG),0.601
17,CGATGTGCATGGACCGGTTTTCCCGGTAATCCGTATTTGGC (site CGATGTGCTGC),3.02
18,CGATGTTCATGGACCGGTTTTCCCGGTAATCCGTATTTGTC (site CGATGTTCTGA),2.98
19,CGATTATCATGGACCGGTTTTCCCGGTAATCCGTATTTGCT (site CGATAATCTAG),0.446
20,CGATTATCATGGACCGGTTTTCCCGGTAATCCGTATTTGCT (site CGATCATCTAG),0
21,CGATTATCATGGACCGGTTTTCCCGGTAATCCGTATTTGCT (site CGATGATCTAG),0
22,CGATTATCATGGACCGGTTTTCCCGGTAATCCGTATTTGCT (site CGATTATCTAG),2.28
23,CGATTCCCATGGACCGGTTTTCCCGGTAATCCGTATTTGCT (site CAATTCCCTAG),0.32
24,CGATTCCCATGGACCGGTTTTCCCGGTAATCCGTATTTGCT (site CCATTCCCTAG),1.03
25,CGATTCCCATGGACCGGTTTTCCCGGTAATCCGTATTTGCT (site CGATTCCCTAG),0.704

row,Sequence,recombinant UMI read abundance (log10)
1,CGATTCCCATGGACCGGTTTTCCCGGTAATCCGTATTTGCT (site CTATTCCCTAG),0
2,CGATTGGCATGGACCGGTTTTCCCGGTAATCCGTATTTGAT (site CGATTGGCTAT),2.26
3,CGCAACACATGGACCGGTTTTCCCGGTAATCCGTATTTGCG (site CGCAACACTCG),1.19
4,CGCAACCCATGGACCGGTTTTCCCGGTAATCCGTATTTGTT (site CGCAACCCTAA),0.717
5,CGCAACCCATGGACCGGTTTTCCCGGTAATCCGTATTTGTT (site CGGAATCCTAA),0
6,CGCAATCCATGGACCGGTTTTCCCGGTAATCCGTATTTGGT (site CGCAATCCTAC),0.135
7,CGCAATCCATGGACCGGTTTTCCCGGTAATCCGTATTTGGT (site CGGAATCCTAA),0
8,CGCACCGCATGGACCGGTTTTCCCGGTAATCCGTATTTGCA (site CGCACCGCTTG),2.35
9,CGCATTACATGGACCGGTTTTCCCGGTAATCCGTATTTGCA (site CGCATTACTTG),1.64
10,CGCATTTCATGGACCGGTTTTCCCGGTAATCCGTATTTGAG (site CGCATTTCTCT),0.426
11,CGCCACTCATGGACCGGTTTTCCCGGTAATCCGTATTTGCG (site CGCCACTCTCG),2.05
12,CGCCCGACATGGACCGGTTTTCCCGGTAATCCGTATTTGCC (site CGCCCGACTGG),2.5
13,CGCCCTACATGGACCGGTTTTCCCGGTAATCCGTATTTGAG (site CACCCTACTCT),0.475
14,CGCCCTACATGGACCGGTTTTCCCGGTAATCCGTATTTGAG (site CCCCCTACTCT),0.0131
15,CGCCCTACATGGACCGGTTTTCCCGGTAATCCGTATTTGAG (site CGCCCTACTCT),1.44
16,CGCCCTACATGGACCGGTTTTCCCGGTAATCCGTATTTGAG (site CTCCCTACTCT),0.0151
17,CGCCGCACATGGACCGGTTTTCCCGGTAATCCGTATTTGCT (site CGCCGAACTAG),0
18,CGCCGCACATGGACCGGTTTTCCCGGTAATCCGTATTTGCT (site CGCCGCACTAG),2.18
19,CGCCGCACATGGACCGGTTTTCCCGGTAATCCGTATTTGCT (site CGCCGGACTAG),0.00439
20,CGCCGCACATGGACCGGTTTTCCCGGTAATCCGTATTTGCT (site CGCCGTACTAG),0
21,CGCCGGACATGGACCGGTTTTCCCGGTAATCCGTATTTGCT (site CGCCGAACTAG),2.52
22,CGCCGGACATGGACCGGTTTTCCCGGTAATCCGTATTTGCT (site CGCCGCACTAG),0.00459
23,CGCCGGACATGGACCGGTTTTCCCGGTAATCCGTATTTGCT (site CGCCGGACTAG),1.82
24,CGCCGGACATGGACCGGTTTTCCCGGTAATCCGTATTTGCT (site CGCCGTACTAG),0
25,CGCCGTACATGGACCGGTTTTCCCGGTAATCCGTATTTGCT (site AGCCGTACTAG),0.192
